The values that follow come from the NIST ThermoML archive (doi:10.1016/j.fluid.2009.12.002).

For orientation: mass density means mass per unit of volume. A word on the vapor or sublimation pressure: it is the pressure of vapour in equilibrium with the condensed phase.

± gives the expanded uncertainty stated by the source.

For series [1] the following is noted: for mass density: Vibrating tube method; for vapor or sublimation pressure: isothermal bubble-point pressure.
Series [2] is described as follows: xn = mol fraction of the nth substance listed. To be noted: Liquid, Vibrating tube method.

Consider `Cc1ccccc1C` [1,2-dimethylbenzene], for which the mass density in series [1] (333.15 K, Gas) is 0.2087 ± 0.1 kg/m3; in series [1] (333.15 K, Liquid), 845.839 ± 0.23 kg/m3; in series [1] (343.15 K, Gas), 0.3149 ± 0.1 kg/m3; in series [1] (343.15 K, Liquid) it was 837.399 ± 0.23 kg/m3; in series [1] (353.15 K, Gas) it was 0.4587 ± 0.1 kg/m3; in series [1] (353.15 K, Liquid), 828.528 ± 0.24 kg/m3. Moreover, the “vapor or sublimation pressure” value was 5.45 ± 0.02 kPa in series [1] (333.15 K, Liquid); 8.47 ± 0.03 kPa in series [1] (343.15 K, Liquid); 12.71 ± 0.03 kPa in series [1] (353.15 K, Liquid).
As to `Cc1ccccc1C` [1,2-dimethylbenzene] + CNC=O, the mass density in series [2] (333.15 K, x1 = 1) turned out to be 845.839 ± 0.23 kg/m3; in series [2] (343.15 K, x1 = 1) it was 837.399 ± 0.23 kg/m3; in series [2] (353.15 K, x1 = 1) it was 828.528 ± 0.24 kg/m3.
For the compound `Cc1cccc(C)c1` [1,3-dimethylbenzene], the mass density in series [1] (333.15 K, Gas) is 0.2519 ± 0.1 kg/m3; in series [1] (333.15 K, Liquid) it was 829.305 ± 0.24 kg/m3; in series [1] (343.15 K, Gas), 0.3779 ± 0.1 kg/m3; in series [1] (343.15 K, Liquid) it was 820.443 ± 0.24 kg/m3; in series [1] (353.15 K, Gas), 0.5457 ± 0.1 kg/m3; in series [1] (353.15 K, Liquid), 811.602 ± 0.24 kg/m3. In addition, the “vapor or sublimation pressure” value is listed as 6.58 ± 0.03 kPa in series [1] (333.15 K, Liquid); 10.17 ± 0.03 kPa in series [1] (343.15 K, Liquid); 15.12 ± 0.04 kPa in series [1] (353.15 K, Liquid).
For `Cc1cccc(C)c1` [1,3-dimethylbenzene] + CNC=O, the mass density came out at 829.305 ± 0.24 kg/m3 in series [2] (333.15 K, x1 = 1); 820.443 ± 0.24 kg/m3 in series [2] (343.15 K, x1 = 1); 811.602 ± 0.24 kg/m3 in series [2] (353.15 K, x1 = 1).
As for `Cc1ccc(C)cc1` [1,4-dimethylbenzene], the mass density amounted to 0.262 ± 0.1 kg/m3 in series [1] (333.15 K, Gas); 825.539 ± 0.24 kg/m3 in series [1] (333.15 K, Liquid); 0.3903 ± 0.1 kg/m3 in series [1] (343.15 K, Gas); 816.664 ± 0.24 kg/m3 in series [1] (343.15 K, Liquid); 0.5636 ± 0.1 kg/m3 in series [1] (353.15 K, Gas); 807.649 ± 0.24 kg/m3 in series [1] (353.15 K, Liquid). Further, the “vapor or sublimation pressure” value is 6.85 ± 0.03 kPa in series [1] (333.15 K, Liquid); 10.5 ± 0.03 kPa in series [1] (343.15 K, Liquid); 15.61 ± 0.04 kPa in series [1] (353.15 K, Liquid).
Turning to `Cc1ccc(C)cc1` [1,4-dimethylbenzene] + CNC=O, the mass density in series [2] (333.15 K, x1 = 1) is reported as 825.539 ± 0.24 kg/m3; in series [2] (343.15 K, x1 = 1) it was 816.664 ± 0.24 kg/m3; in series [2] (353.15 K, x1 = 1), 807.649 ± 0.24 kg/m3.
Consider `CNC=O` [N-methylformamide], for which the mass density in series [1] (333.15 K, Liquid) is reported as 967.461 ± 0.23 kg/m3; in series [1] (343.15 K, Liquid), 958.765 ± 0.23 kg/m3; in series [1] (353.15 K, Liquid), 949.98 ± 0.23 kg/m3. Besides, the “vapor or sublimation pressure” value in series [1] (333.15 K, Liquid) is listed as 0.37 ± 0.02 kPa; in series [1] (343.15 K, Liquid) it was 0.67 ± 0.02 kPa; in series [1] (353.15 K, Liquid) it was 1.15 ± 0.02 kPa.
Turning to `CNC=O` [N-methylformamide] + Cc1ccc(C)cc1, the mass density in series [2] (333.15 K, x2 = 0) came out at 967.461 ± 0.23 kg/m3; in series [2] (343.15 K, x2 = 0), 958.765 ± 0.23 kg/m3; in series [2] (353.15 K, x2 = 0), 949.98 ± 0.23 kg/m3.
For `CNC=O` [N-methylformamide] + Cc1cccc(C)c1, the mass density in series [2] (333.15 K, x2 = 0) turned out to be 967.461 ± 0.23 kg/m3; in series [2] (343.15 K, x2 = 0), 958.765 ± 0.23 kg/m3; in series [2] (353.15 K, x2 = 0), 949.98 ± 0.23 kg/m3.
In the case of `CNC=O` [N-methylformamide] + Cc1ccccc1C, the mass density was 967.461 ± 0.23 kg/m3 in series [2] (333.15 K, x2 = 0); 958.765 ± 0.23 kg/m3 in series [2] (343.15 K, x2 = 0); 949.98 ± 0.23 kg/m3 in series [2] (353.15 K, x2 = 0).
